# Measured values published in patent US7312237B2, “Combination of epothilone analogs and chemotherapeutic agents for the treatment of prolilferative diseases” (Bristol-Myers Squibb Co., priority 2001, dated 2007).
# pIC50: −log10 of the molar value.
# What was measured:
# MIP = assay: In vitro cytotoxicity (MTS assay), MIP; format: cell-based; details: MIP (MDR colon tumor line), 72 hour incubation; read-out: IC50
# Description: (§1) The in vitro cytotoxicity was assessed in tumor cells by a tetrazolium-based colorimetric assay which takes advantage of the metabolic conversion of MTS (3-(4,5-dimethylthiazol-2-yl)-5-(3-carboxymethoxyphenyl)-2-(4-sulphenyl)-2H-tetrazolium, inner salt) to a reduced form that absorbs light at 492 nm. Cells were seeded 24 hr prior to drug addition. Following a 72 hour incubation at 37° C. with serially diluted compound, MTS, in combination with the electron coupling agent phenazine methosulfate, was added to the cells. The incubation was continued for 3 hours, then the absorbancy of the medium at 492 nm was measured with a spectrophotometer to obtain the number of surviving cells relative to control populations. The results are expressed as median cytotoxic concentrations (IC50 values).
# [1] = system: LS174T human colon carcinoma; assay: In vivo antitumor testing, LS174T xenograft; parameters: species or system nude mice; details: Expt. R578, iv paclitaxel 36 mg/kg/inj every 2 days for 5 doses
# Description: (§2) All tumor implants for efficacy testing were subcutaneous (sc).
# (§3) The MTD was frequently equivalent to OD. When death occurs, the day of death was recorded.
# (§4) And, Log cell kill=T−C÷(3.32×TVDT)
# [2] = system: M5076 murine fibrosarcoma; assay: In vivo antitumor testing, M5076 murine sarcoma; parameters: species or system mice; details: optimal schedule
# Description: The murine fibrosarcoma M5076 was also employed.
# The human tumors were maintained in Balb/c nu/nu nude mice. M5076 was maintained in C57BL/6 mice. Tumors were propagated as subcutaneous transplants in the appropriate mouse strain using tumor fragments obtained from donor mice.
# as §2, §3, §4
# HCT-116 = assay: In vitro cytotoxicity (MTS assay), HCT-116; format: cell-based; details: Homo sapiens; HCT-116, 72 hour incubation
# Description: HCT116 human carcinoma cell lines and HCT116/VM46 cells, a MDR variant, were maintained in McCoy's 5A medium (GIBCO) and 10% heat inactivated fetal bovine serum (GIBCO). A2780 human ovarian carcinoma cells and A2780Tax cells obtained from Dr. Antonio Fojo (NCI, Bethesda, Md.) were maintained in IMEM (GIBCO) and 10% fetal bovine serum (GIBCO).
# as §1
# [3] = system: A2780 human ovarian carcinoma; assay: In vivo antitumor testing, A2780 in nude rats; details: nude rats, IV paclitaxel
# Description: as §3, §4
# A2780 grown in nude rats was also utilized.
# [4] = system: HCT116/VM46 human colon carcinoma; assay: in vivo
# From the text: (§5) The following human tumors were used: A2780 ovarian, A2780Tax ovarian (established from cells obtained from Dr. Antonio Fojo, Medicine Branch, NCI, Bethesda, Md.), HCT116/VM46 colon, Pat-7 ovarian (established from a tumor biopsy provided by Dr. Thomas Hamilton, Fox Chase Cancer Center, Philadelphia, Pa.) from a patient who had developed resistance to TAXOL®). The murine fibrosarcoma M5076 was also employed.
# (§6) The following tumors were passaged in the indicated host strain of mouse: murine M5076 fibrosarcoma (M5076) in C57Bl/6 mice; human A2780 and Pat-7 ovarian carcinomas, HCT116, HCT116/VM46 and LS174T colon carcinoma, Pat-21 breast carcinoma in nude mice. Tumor passage occurred biweekly for murine tumors and approximately every two to eight weeks for the various human tumor lines. With regard to efficacy testing, M5076 tumors were implanted in (C57Bl/6×DBA/2)F1 hybrid mice, and human tumors were implanted in nude mice. All tumor implants for efficacy testing were subcutaneous (sc).
# (§7) The required number of animals needed to detect a meaningful response were pooled at the start of the experiment and each was given a subcutaneous implant of a tumor fragment (·50 mg) with a 13-gauge trocar. For treatment of early-stage tumors, the animals were again pooled before distribution to the various treatment and control groups. For treatment of animals with advanced-stage disease, tumors were allowed to grow to the predetermined size window (tumors outside the range were excluded) and animals were evenly distributed to various treatment and control groups. Treatment of each animal was based on individual body weight. Treated animals were checked daily for treatment related toxicity/mortality. Each group of animals was weighed before the initiation of treatment (Wt1) and then again following the last treatment dose (Wt2). The difference in body weight (Wt2−Wt1) provides a measure of treatment-related toxicity.
# (§8) Tumor weights (mg) were estimated from the formula: Tumor weight=(length×width^2)÷2
# Antitumor activity was evaluated at the maximum tolerated dose (MTD) which is defined as the dose level immediately […] which excessive toxicity (i.e. more than one death) occurred. […] When death occurs, the day of death was recorded.
# Tumor response end-point was expressed in terms of tumor growth delay (T-C value), defined as the difference in time (days) required for the treated tumors (T) to reach a predetermined target size compared to those of the control group (C).
# To estimate tumor cell kill, the tumor volume doubling time was first calculated with the formula:
# TVDT=Median time (days) for control tumors to reach target size−Median time (days) for control tumors to reach half the target size
# HCT116/VM46 is an MDR-resistant colon carcinoma developed from the sensitive HCT116 parent line.
# Pat-21 breast carcinoma = system: Pat-21 breast carcinoma
# From the text: as §6, §7, §8
# (§9) Antitumor activity was evaluated at the maximum tolerated dose (MTD) which is defined as the dose level immediately […] which excessive toxicity (i.e. more than one death) occurred. […] When death occurs, the day of death was recorded. […]
# (§10) To estimate tumor cell kill, the tumor volume doubling time was first calculated with the formula: […]
# [5] = system: A2780Tax human ovarian carcinoma; details: Expt. 12, IV paclitaxel at its MTD
# From the text: as §5
# The following tumors were passaged in the indicated host strain of mouse: murine M5076 fibrosarcoma (M5076) in C57Bl/6 mice; human A2780 and Pat-7 ovarian carcinomas, HCT116, HCT116/VM46 and LS174T colon carcinoma, Pat-21 breast carcinoma in nude mice. Tumor passage occurred biweekly for murine tumors and approximately every two to eight weeks for the various human tumor lines. With regard to efficacy testing, M5076 tumors were implanted in (C57Bl/6×DBA/2)F1 hybrid mice, and human tumors were implanted in nude mice. All tumor implants for efficacy testing were subcutaneous (sc). […]
# as §9, §10
# [6] = system: Pat-7 human ovarian carcinoma; assay: In vivo antitumor testing, Pat-7 in nude mice
# Description: as §2, §3, §4
# This tumor model was established from a tumor biopsy of an ovarian cancer patient (Pat-7), who was initially responsive to TAXOL® treatment but ultimately developed resistance to it following nine courses of monotherapy with TAXOL®. Prior to treatment with TAXOL®, Pat-7 also received numerous other chemotherapeutic agents including carboplatin, cytoxan, VP-16, ifosfamide and altretamine. Tumor biopsy was taken following development of TAXOL® resistance.
# [7] = system: Pat-7 human ovarian carcinoma; assay: In vivo antitumor testing, Pat-7 in nude rats; details: Expt. 15, nude rats, paclitaxel at optimal dose
# Description: as §3, §4
# [8] = system: A2780 human ovarian carcinoma; assay: In vivo antitumor testing, A2780 in nude mice
# Description: as §2, §3, §4
# [9] = system: tubulin isolated from calf brain; assay: Tubulin polymerization assay; format: biochemical
compound,measurement,setting,value
"CC(=O)O[C@H]1C(=O)[C@@]2(C)[C@H]([C@H](OC(=O)c3ccccc3)[C@]3(O)C[C@H](OC(=O)[C@H](O)[C@@H](NC(=O)c4ccccc4)c4ccccc4)C(C)=C1C3(C)C)[C@]1(OC(C)=O)CO[C@@H]1C[C@@H]2O [Paclitaxel, reference compound]",pIC50,MIP,< 6.95
same,Paclitaxel LCK,[1],2.0
same,Paclitaxel LCK,"[2]; Expt. 159, IV paclitaxel",0.1
same,Paclitaxel LCK,"[2]; Expt. 162, IV paclitaxel",0.5
same,pIC50,HCT-116,8.68
same,cures,[3],5 of 7
same,Paclitaxel LCK,"[4]; Expt. 32, IV paclitaxel at its MTD",0.4
same,Paclitaxel LCK,"[4]; Expt. 33, IV paclitaxel at its MTD",0.7
same,median LCK of 12 consecutive studies,[4]; paclitaxel at its MTD,0.35 LCK
same,Paclitaxel LCK,"Pat-21 breast carcinoma; Expt. R667, paclitaxel at MTD of 36 mg/kg/inj",0.3
same,MTD,"Pat-21 breast carcinoma; paclitaxel, two courses of 3 doses every 4 days",36 mg/kg/inj
same,Paclitaxel LCK,[5],0.8
same,Paclitaxel LCK,"[6]; Expt. 8, IV paclitaxel at optimal dose (24-36 mg/kg/inj) and schedule",1.3
same,Paclitaxel (IV) LCK,"[6]; Expt. 9, IV paclitaxel at optimal dose (24-36 mg/kg) and schedule",1.2
same,Paclitaxel LCK,"[6]; Expt. R403, IV paclitaxel at optimal dose (24-36 mg/kg/inj) and schedule",0.6
same,Paclitaxel LCK,[7],2.2
same,Paclitaxel cures/total,[7]; listed as PACLITAXEL,(0/6)
same,Paclitaxel cures/total,[7]; listed as paclitaxel,no cures
same,Paclitaxel LCK,"[8]; Expt. 89, IV paclitaxel at optimal dose",2
same,Paclitaxel LCK,"[8]; Expt. 92, IV paclitaxel at optimal dose",3.5
C/C(=C\c1csc(C)n1)[C@@H]1C[C@@H]2O[C@@H]2CCC[C@H](C)[C@H](O)[C@@H](C)C(=O)C(C)(C)[C@@H](O)CC(=O)O1 [Epothilone A],Ratio of Polymerization Potency of Analog/Paclitaxel,[9],0.4
C/C(=C\c1csc(C)n1)[C@@H]1C[C@@H]2O[C@]2(C)CCC[C@H](C)[C@H](O)[C@@H](C)C(=O)C(C)(C)[C@@H](O)CC(=O)O1 [Epothilone B],Ratio of Polymerization Potency of Analog/Paclitaxel,[9],0.3
